Test results published in patent publication US20260325540A1 (priority 2023, published 2026).

Target: HCoV-229E 3CL protease (Human coronavirus 229E, UniProt P0C6U2)
Assay: FRET based protease assay, HCoV-229E 3CL
Format: biochemical
Settings: 229E IC50, 6 nM H229E-CoV Chis-3CLpro, 6 μM peptide 1 substrate, 25° C., 1.5 hrs, pH 7.5

Sequence of HCoV-229E 3CL protease (P0C6U2 2966-3267): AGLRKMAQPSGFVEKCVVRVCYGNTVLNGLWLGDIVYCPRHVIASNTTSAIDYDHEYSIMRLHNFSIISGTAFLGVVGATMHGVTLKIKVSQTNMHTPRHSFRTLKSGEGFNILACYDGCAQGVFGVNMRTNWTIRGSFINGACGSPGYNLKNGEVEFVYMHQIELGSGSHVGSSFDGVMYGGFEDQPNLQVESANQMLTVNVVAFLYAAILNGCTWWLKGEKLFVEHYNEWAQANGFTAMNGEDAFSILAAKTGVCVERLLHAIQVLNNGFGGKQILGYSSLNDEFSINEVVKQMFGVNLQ

Compound | IC50 [µM]
CC(C)C[C@@H]1NC(=O)[C@@H](Cc2ccccc2)CCC[C@H]2CNC(=O)[C@@H]2C[C@@H](C#N)NC1=O [Example 27] | 1 to 20
N#C[C@@H]1C[C@@H]2C(=O)NCC[C@@H]2CCCC[C@H](NC(=O)OC2CCCC2)C(=O)N2C[C@@H]3CCC[C@@H]3[C@H]2C(=O)N1 [Example 93] | < 0.1
CC(C)(C)OC(=O)N[C@H]1CCCC[C@H]2CNC(=O)[C@H]2C[C@@H](C#N)NC(=O)[C@@H]2[C@H]3CCC[C@H]3CN2C1=O [Example 79] | < 0.1
N#C[C@@H]1C[C@@H]2C(=O)NC[C@@H]2/C=C/CC[C@H](NC(=O)C(F)(F)F)C(=O)N2C[C@@H]3CCC[C@@H]3[C@H]2C(=O)N1 [Example 101] | < 0.1
CC(C)(C)OC(=O)N[C@H]1CCCC[C@H]2CNC(=O)[C@H]2C[C@@H](C#N)NC(=O)[C@H](CC2CCCC2)NC1=O [Example 137] | < 0.1
CC(C)C[C@@H]1NC(=O)CCCCC[C@H]2CNC(=O)[C@H]2C[C@@H](C#N)NC1=O [Example 38] | 0.1 to 1
CC(C)C[C@@H]1NC(=O)[C@@H](Cc2ccccc2)CCCCC[C@@H]2CNC(=O)[C@@H]2C[C@@H](C#N)NC1=O [Example 49] | > 20
N#C[C@@H]1C[C@@H]2C(=O)NC[C@@H]2CCCC[C@H](NC(=O)OC2CCCC2)C(=O)N2C[C@@H]3CCC[C@@H]3[C@H]2C(=O)N1 [Example 94] | < 0.1
Cc1nc(C(=O)N[C@H]2CCCC[C@H]3CNC(=O)[C@H]3C[C@@H](C#N)NC(=O)[C@@H]3[C@@H]4[C@H](CN3C2=O)C4(C)C)cs1 [Example 113] | 0.1 to 1
CC1(C)[C@@H]2[C@H]3C(=O)N[C@H](C#N)C[C@@H]4C(=O)NC[C@@H]4CCCC[C@H](NC(=O)c4cc(C(F)(F)F)on4)C(=O)N3C[C@@H]21 [Example 153] | < 0.1
CC(C)(C)NC(=O)[C@@H]1CCCC[C@H]2CNC(=O)[C@H]2C[C@@H](C#N)NC(=O)[C@@H]2[C@@H]3[C@H](CN2C1=O)C3(C)C [Example 166] | 1 to 20
CC(C)(C)C(=O)N[C@H]1CCCC[C@H]2CNC(=O)[C@H]2C[C@@H](C#N)NC(=O)[C@@H]2CCCN2C1=O [Example 74] | 1 to 20
CC(C)(F)C[C@@H]1NC(=O)[C@@H](NC(=O)OC(C)(C)C)CCCC[C@H]2CNC(=O)[C@H]2C[C@@H](C#N)NC1=O [Example 138] | 0.1 to 1
CC(C)C[C@@H]1NC(=O)CCCCC[C@@H]2CCNC(=O)[C@H]2C[C@@H](C=O)NC1=O [Example 33] | 1 to 20
CC(C)C[C@@H]1NC(=O)CCCCCC[C@H]2CNC(=O)[C@H]2C[C@@H](C=O)NC1=O [Example 45] | < 0.1
CC(C)C[C@@H]1NC(=O)CCCCC[C@H]2CCNC(=O)[C@@H]2C[C@@H](C=O)NC1=O [Example 34] | 0.1 to 1
CC(C)(C)C(=O)N[C@H]1CCCC[C@H]2CNC(=O)[C@H]2C[C@@H](C#N)NC(=O)[C@@H]2[C@H]3CCC[C@H]3CN2C1=O [Example 70] | < 0.1
CN1C[C@@H]2CCCC[C@H](NC(=O)OC(C)(C)C)C(=O)N3C[C@H]4[C@@H]([C@H]3C(=O)N[C@H](C#N)C[C@@H]2C1=O)C4(C)C [Example 140] | 1 to 20
CC1(C)[C@@H]2[C@H]3C(=O)N[C@H](C#N)C[C@H]4C(=O)NC[C@@H]4CCCCC(=O)N3C[C@@H]21 [Example 25] | 0.1 to 1
CC1(C)[C@@H]2[C@H]3C(=O)N[C@H](C#N)C[C@@H]4C(=O)NC[C@@H]4CCCC[C@H](NC(=O)C(C)(C)C(F)(F)F)C(=O)N3C[C@@H]21 [Example 141] | < 0.1
CC(C)(C)OC(=O)N[C@H]1CCCC[C@H]2CNC(=O)[C@H]2C[C@@H](C#N)NC(=O)[C@H]2N(CC(F)(F)C2(C)C)C1=O [Example 146] | 0.1 to 1
CC(C)(C)OC(=O)N[C@H]1CC/C=C\[C@H]2CCNC(=O)[C@H]2CC(C#N)NC(=O)[C@@H]2[C@H]3CCC[C@H]3CN2C1=O (stereo partly shown) [Example 97] | < 0.1

Compound | IC50 [µM]
CC1(C)[C@@H]2[C@H]3C(=O)N[C@H](C#N)C[C@@H]4C(=O)NC[C@@H]4CCCC[C@H](N)C(=O)N3C[C@@H]21 [Example 161] | < 0.1
CC(C)C[C@@H]1NC(=O)CCCC[C@@H]2CNC(=O)[C@@H]2C[C@@H](C=O)NC1=O [Example 1] | 1 to 20
CC(C)C[C@@H]1NC(=O)[C@H](Cc2ccccc2)CCC[C@@H]2CNC(=O)[C@@H]2C[C@@H](C=O)NC1=O [Example 11] | 0.1 to 1
CC(C)C[C@@H]1NC(=O)[C@@H](C2CCCC2)CCC[C@H]2CNC(=O)[C@H]2C[C@@H](C=O)NC1=O [Example 13] | 0.1 to 1
CC(C)(C)OC(=O)NN1CCCC[C@H]2CNC(=O)[C@H]2C[C@@H](C#N)NC(=O)[C@@H]2[C@@H]3[C@H](CN2C1=O)C3(C)C [Example 168] | 1 to 20
CC(C)C[C@@H]1NC(=O)CCCCC[C@@H]2CNC(=O)[C@H]2C[C@@H](C=O)NC1=O [Example 31] | 1 to 20
CO[C@@H]1C[C@H]2C(=O)N[C@H](C#N)C[C@@H]3C(=O)NC[C@@H]3CCCC[C@H](NC(=O)OC(C)(C)C)C(=O)N2C1 [Example 147] | 0.1 to 1
CC(C)C[C@@H]1NC(=O)CCCC[C@H]2CNC(=O)[C@H]2C[C@@H](C=O)NC1=O [Example 2] | 1 to 20
N#C[C@@H]1C[C@@H]2C(=O)NC[C@@H]2CCCC[C@H](NS(=O)(=O)c2ccc(F)cc2F)C(=O)N2C[C@@H]3CCC[C@@H]3[C@H]2C(=O)N1 [Example 155] | < 0.1
Cc1cc(C(=O)N[C@H]2CCCC[C@H]3CNC(=O)[C@H]3C[C@@H](C#N)NC(=O)[C@@H]3[C@@H]4[C@H](CN3C2=O)C4(C)C)no1 [Example 122] | < 0.1
CC1(C)[C@@H]2[C@H]3C(=O)N[C@H](C#N)C[C@@H]4C(=O)NC[C@@H]4CCCC[C@H](NC(=O)c4cncnc4)C(=O)N3C[C@@H]21 [Example 107] | < 0.1
CC(C)C[C@@H]1NC(=O)CCCCCC[C@@H]2CNCC(=O)[C@H]2C[C@@H](C=O)NC1=O [Example 51] | 1 to 20
CC(C)(C)C(=O)N[C@H]1CC/C=C/[C@H]2CNC(=O)[C@H]2C[C@@H](C#N)NC(=O)[C@@H]2[C@@H]3[C@H](CN2C1=O)C3(C)C [Example 61] | < 0.1
N#C[C@@H]1C[C@@H]2C(=O)NC[C@@H]2CCCC[C@H](NC(=O)C2CC(F)(F)C2)C(=O)N2C[C@@H]3CCC[C@@H]3[C@H]2C(=O)N1 [Example 84] | < 0.1
CC(C)C[C@@H]1NC(=O)CCCCCC[C@@H]2CNC(=O)[C@@H]2C[C@@H](C=O)NC1=O [Example 46] | 0.1 to 1
CC(C)(C)C(=O)N[C@H]1C/C=C\[C@H]2CNC(=O)[C@H]2C[C@@H](C#N)NC(=O)[C@@H]2[C@@H]3[C@H](CN2C1=O)C3(C)C [Example 64] | 1 to 20
CC1(C)[C@@H]2[C@H]3C(=O)N[C@H](C#N)C[C@@H]4C(=O)NC[C@@H]4CCCC[C@H](NC(=O)C(F)(F)F)C(=O)N3C[C@@H]21 [Example 87] | < 0.1
CC(C)C[C@@H]1NC(=O)[C@@H](NC(=O)OC(C)(C)C)CCC[C@H]2CNC(=O)[C@H]2C[C@@H](C=O)NC1=O [Example 15] | 0.1 to 1
CC(C)C[C@@H]1NC(=O)[C@@H](NC(=O)OC(C)(C)C)CCCC[C@H]2CNC(=O)[C@H]2C[C@@H](C#N)NC1=O [Example 56] | < 0.1
CC(C)C[C@@H]1NC(=O)[C@@H](Cc2ccccc2)CCCC[C@H]2CNC(=O)[C@H]2C[C@@H](C=O)NC1=O [Example 36] | < 0.1
CC(C)C[C@@H]1NC(=O)[C@@H](C2CCCC2)CCCC[C@H]2CNC(=O)[C@H]2C[C@@H](C#N)NC1=O [Example 41] | > 20
